Reference: US6890887B2, “Synergistic herbicidal methods and compositions comprising dinitroaniline and imidazolinone compounds” (BASF Aktiengesellschaft, priority 1999, dated 2005)

Assays:
Assay in all cases: Preemergence field plot evaluation of percent weed control
Assay type in all cases: in vivo
Details in all cases: visual, 60 days after application
[1] = test system: Poa annua
Description: (§1) In the following examples, synergism is determined by the Colby^1 method, i.e. the expected (or predicted) response of the combination is calculated by taking the product of the observed response for each individual component of the combination when applied alone divided by 100 and subtracting this value from the sum of the observed response for each component when applied alone. Synergism of the combination is then determined by comparing the observed response of the combination to the expected (or predicted) response as calculated from the observed response of each individual component alone.
(§2) The foregoing is illustrated mathematically below, wherein a combination, C, is composed of component A plus component B and Obs. designates the observed response of the combination C. [formula]
(§3) Formulations containing imazamox^1, pendimethalin^2 and an imazamox/pendimethalin combination^3 are diluted with water and applied preemergence at volumes of 200 L/ha to 400 L/ha to field plots to provide the rates shown in Table I. 60 days after application, the plots are visually evaluted for percent weed control. The results are summarized in Table I. If more than one plot is included in an evaluation, the results are averaged.
(§4) ^1 BOLERO® 40 SL, an imazamox aqueous concentrate commercially available from American Cyanamid Company, Parsippany, N.J.
(§5) ^2 STOMP® 400 SC, a pendimethalin suspension concentrate commercially available from American Cyanamid Company, Parsippany, N.J.
(§6) ^3 An emulsifiable concentrate containing imazamox and pendimethalin.

[2] = test system: Polygonum persicaria
Description: as §1, §2, §3, §4, §5, §6

[3] = test system: Setaria verticilliata
Description: as §1, §2, §3, §4, §5, §6

Structure (SMILES): COCc1cnc(C2=NC(C)(C(C)C)C(=O)N2)c(C(=O)O)c1 (stereo not drawn) [Imazamox, 2-(4-isopropyl-4-methyl-5-oxo-2-imidazolin-2-yl)-5-(methoxymethyl)nicotinic acid]
- % Weed Control Observed ([1]; imazamox 75 g/ha alone): 68%
- % Weed Control Observed ([2]; imazamox 75 g/ha alone): 66%
- % Weed Control Observed ([3]; imazamox 75 g/ha alone): 45%

Structure (SMILES): CCC(CC)Nc1c([N+](=O)[O-])cc(C)c(C)c1[N+](=O)[O-] [Pendimethalin]
- % Weed Control Observed ([1]; pendimethalin 1,125 g/ha alone): 63%
- % Weed Control Observed ([2]; pendimethalin 1,125 g/ha alone): 76%
- % Weed Control Observed ([3]; pendimethalin 1,125 g/ha alone): 86%
